Experimental data as given in patent US20240393292A1, “ALLERGY ANTIGEN AND EPITOPE THEREOF” (HOYU CO., LTD., priority 2019, published 2024).
Values belong to the substance of their own block, whether it stands above or below them.

System: IgE antibodies from patients
Assay: Wheat epitope mapping (2): overlapping 10-amino-acid peptide fragments shifted by one amino acid;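 on Rank of partial sequence as epitope binding to IgE antibody: key = sequence deemed particularly important within the common 15-residue sequence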;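 on epitope sequence binding to IgE antibody, rank (Key/Preferably/More preferably): key of grades: preferably = shorter partial sequence still acting as epitope; more preferably = sequence improving IgE binding; key = particularly important sequence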
Format: binding, human
In short: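 Residual binding was banded as <30% none, 30–<50% poor, 50–<70% somewhat poor and ≥70% retained, relative to the parent overlapping sequence set to 100%. Values were chemiluminescent IgE signals from patient sera after subtracting secondary-antibody-only controls. The peptides were spot-synthesised 10-mers shifted by one amino acid.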

[1] = serum of patient G2 (adult, general immediate type allergy to wheat)
[2] = serum of patient P34 (WDEIA), sequence without X
[3] = serum of patient P26 (WDEIA), sequence without X
[4] = serum of patient P29 (WDEIA), sequence without X
[5] = serum of patient P8 (WDEIA), sequence without X
[6] = serum of patient P12 (WDEIA), sequence without X
[7] = serum of patient P25 (WDEIA), sequence without X

Substance: 1777 (KEVSSYLKK; REGION 1..9: note = epitope) [compound 1777]
- epitope sequence binding to IgE antibody, rank (Key/Preferably/More preferably) [1]: Key

Substance: 1288 (LPRS; REGION 1..4: note = epitope) [compound 1288]
- Epitope sequence binding to IgE antibody, rank of the sequence (serum of patient P52 (child, general immediate type allergy to wheat), sequence without X): Key

Substance: 1775 (LKKVGYN; REGION 1..7: note = epitope) [compound 1775]
- epitope sequence binding to IgE antibody, rank (Key/Preferably/More preferably) (serum of patient P55 (child, general immediate type allergy to wheat)): Key

Substance: 1207 (FPPQQ; REGION 1..5: note = epitope) [compound 1207]
- Epitope sequence binding to IgE antibody, rank of the sequence [2]: Key

Substance: 1740 (KEAANF; REGION 1..6: note = epitope) [compound 1740]
- epitope sequence binding to IgE antibody, rank (Key/Preferably/More preferably) (serum of patient G1 (adult, general immediate type allergy to wheat)): Key

Substance: 1573 (PQQPQQPFP; REGION 1..9: note = epitope) [compound 1573]
- Rank of partial sequence as epitope binding to IgE antibody (serum of patient P16 (WDEIA), sequence without X): Preferably

Substance: 1967 (VPLVQQQ; REGION 1..7: note = epitope) [compound 1967]
- epitope sequence binding to IgE antibody, rank (Key/Preferably/More preferably) (serum of patient P34 (WDEIA)): Key

Substance: 1857 (TVRTLQR; REGION 1..7: note = epitope) [compound 1857]
- epitope sequence binding to IgE antibody, rank (Key/Preferably/More preferably) (serum of patient P18 (WDEIA)): Preferably

Substance: 1669 (GYNPDKVPFV; REGION 1..10: note = epitope) [compound 1669]
- Rank of partial sequence as epitope binding to IgE antibody (serum of patient G4 (adult, general immediate type allergy to wheat), sequence without X): More preferably

Substance: 1450 (YLQPQQPISQ; REGION 1..10: note = epitope) [compound 1450]
- Rank of partial sequence as epitope binding to IgE antibody (serum of patient P22 (WDEIA), sequence without X): Further preferably

Substance: 1269 (LPRS; REGION 1..4: note = epitope) [compound 1269]
- Epitope sequence binding to IgE antibody, rank of the sequence (serum of patient P20 (WDEIA), sequence without X): Key

Substance: 1307 (NVEN; REGION 1..4: note = epitope) [compound 1307]
- Epitope sequence binding to IgE antibody, rank of the sequence [5]: Key

Substance: 1381 (PWQQQPLPPQ; REGION 1..10: note = epitope) [compound 1381]
- Epitope sequence binding to IgE antibody, rank of the sequence [6]: Preferably

Substance: 1759 (YLKK; REGION 1..4: note = epitope) [compound 1759]
- epitope sequence binding to IgE antibody, rank (Key/Preferably/More preferably) (serum of patient P17 (WDEIA)): Key

Substance: 1783 (KVGYNP; REGION 1..6: note = epitope) [compound 1783]
- epitope sequence binding to IgE antibody, rank (Key/Preferably/More preferably) (serum of patient G4 (adult, general immediate type allergy to wheat)): Key

Substance: 1778 (KVGY; REGION 1..4: note = epitope) [compound 1778]
- epitope sequence binding to IgE antibody, rank (Key/Preferably/More preferably) [1]: Key

Substance: 1388 (QQPLPPQQQ; REGION 1..9: note = epitope) [compound 1388]
- Epitope sequence binding to IgE antibody, rank of the sequence (serum of patient P14 (WDEIA), sequence without X): Preferably

Substance: 1277 (LPRS; REGION 1..4: note = epitope) [compound 1277]
- Epitope sequence binding to IgE antibody, rank of the sequence [4]: Key

Substance: 1737 (KEAANFT; REGION 1..7: note = epitope) [compound 1737]
- epitope sequence binding to IgE antibody, rank (Key/Preferably/More preferably) (serum of patient P57 (child, general immediate type allergy to wheat)): Preferably

Substance: 1391 (QPLPPQQQ; REGION 1..8: note = epitope) [compound 1391]
- Epitope sequence binding to IgE antibody, rank of the sequence (serum of patient P15 (WDEIA), sequence without X): Key

Substance: 1200 (QQFPGQQQQ; REGION 1..9: note = epitope) [compound 1200]
- Epitope sequence binding to IgE antibody, rank of the sequence (serum of patient P28 (WDEIA), sequence without X): Key

Substance: 1702 (SQVIIM; REGION 1..6: note = epitope) [compound 1702]
- Rank of partial sequence as epitope binding to IgE antibody [7]: Key

Substance: 1817 (SGKELE; REGION 1..6: note = epitope) [compound 1817]
- epitope sequence binding to IgE antibody, rank (Key/Preferably/More preferably) (serum of patient P32 (WDEIA)): Key

Substance: 1623 (YNPD; REGION 1..4: note = epitope) [compound 1623]
- Rank of partial sequence as epitope binding to IgE antibody [7]: Key

Substance: 1242 (PQQPPC; REGION 1..6: note = epitope) [compound 1242]
- Epitope sequence binding to IgE antibody, rank of the sequence [3]: Preferably

Substance: 1660 (YNPDK; REGION 1..5: note = epitope) [compound 1660]
- Rank of partial sequence as epitope binding to IgE antibody (serum of patient G1 (adult, general immediate type allergy to wheat), sequence without X): Key

Substance: 1792 (SGKELE; REGION 1..6: note = epitope) [compound 1792]
- epitope sequence binding to IgE antibody, rank (Key/Preferably/More preferably) (serum of patient P8 (WDEIA)): Key

Substance: 1958 (QQFPGQQQ; REGION 1..8: note = epitope) [compound 1958]
- epitope sequence binding to IgE antibody, rank (Key/Preferably/More preferably) (serum of patient P28 (WDEIA)): More preferably

Substance: 1905 (VPLVQ; REGION 1..5: note = epitope) [compound 1905]
- epitope sequence binding to IgE antibody, rank (Key/Preferably/More preferably) (serum of patient P4 (WDEIA)): Key

Substance: 1520 (QVPLVQQ; REGION 1..7: note = epitope) [compound 1520]
- Rank of partial sequence as epitope binding to IgE antibody [5]: Preferably

Substance: 1407 (YLQPQQPISQ; REGION 1..10: note = epitope) [compound 1407]
- Epitope sequence binding to IgE antibody, rank of the sequence (serum of patient P3 (WDEIA), sequence without X): Preferably

Substance: 1819 (SGKELEALPK; REGION 1..10: note = epitope) [compound 1819]
- epitope sequence binding to IgE antibody, rank (Key/Preferably/More preferably) (serum of patient P33 (WDEIA)): Key

Substance: 1633 (YNPD; REGION 1..4: note = epitope) [compound 1633]
- Rank of partial sequence as epitope binding to IgE antibody (serum of patient P31 (WDEIA), sequence without X): Key

Substance: 1888 (TVRTLQRT; REGION 1..8: note = epitope) [compound 1888]
- epitope sequence binding to IgE antibody, rank (Key/Preferably/More preferably) (serum of patient G5 (adult, general immediate type allergy to wheat)): Key

Further lines, results first:

- Epitope sequence binding to IgE antibody, rank of the sequence (serum of patient P29 (WDEIA), partial sequence): Key
Substance: 2578 (YQLVQQL; REGION 1..7: note = epitope) [compound 2578]

- Epitope sequence binding to IgE antibody, rank of the sequence (serum of patient G6 (adult, general immediate type allergy to wheat), partial sequence): Key
Substance: 2608 (QLVQQL; REGION 1..6: note = epitope) [compound 2608]

- Epitope sequence binding to IgE antibody, rank of the sequence (Key/Preferably/More preferably) (serum of patient P35 (WDEIA), sequence without X): Key
Substance: 2399 (TEIV; REGION 1..4: note = epitope) [compound 2399]

- Epitope sequence binding to IgE antibody, rank of the sequence (Key/Preferably/More preferably) [3]: Preferably
Substance: 2284 (LGGIDK; REGION 1..6: note = epitope) [compound 2284]

- Epitope sequence binding to IgE antibody, rank of the sequence (serum of patient P7 (WDEIA), partial sequence): Preferably
Substance: 2633 (KEAAEM; REGION 1..6: note = epitope) [compound 2633]

- Epitope sequence binding to IgE antibody, rank of the sequence (Key/Preferably/More preferably) [4]: Key
Substance: 2234 (RNYR; REGION 1..4: note = epitope) [compound 2234]

- Epitope sequence binding to IgE antibody, rank of the sequence (Key/Preferably/More preferably) [5]: Key
Substance: 2222 (RLLRGIRNY; REGION 1..9: note = epitope) [compound 2222]

- Epitope sequence binding to IgE antibody, rank of the sequence (Key/Preferably/More preferably) [3]: Key
Substance: 2285 (GIDK; REGION 1..4: note = epitope) [compound 2285]

- Epitope sequence binding to IgE antibody, rank of the sequence (Key/Preferably/More preferably/Further preferably) (serum of patient P50 (child, general immediate type allergy to wheat), sequence without X): Key
Substance: 2297 (ERFEK; REGION 1..5: note = epitope) [compound 2297]

- Epitope sequence binding to IgE antibody, rank of the sequence (Key/Preferably/More preferably) [6]: More preferably
Substance: 2423 (AWSGKTEN; REGION 1..8: note = epitope) [compound 2423]

- Epitope sequence binding to IgE antibody, rank of the sequence (Key/Preferably/More preferably) [2]: Key
Substance: 2293 (ERFE; REGION 1..4: note = epitope) [compound 2293]

- Epitope sequence binding to IgE antibody, rank of the sequence (serum of patient G5 (adult, general immediate type allergy to wheat), partial sequence): Key
Substance: 2606 (QLVQQL; REGION 1..6: note = epitope) [compound 2606]

- Epitope sequence binding to IgE antibody, rank of the sequence (Key/Preferably/More preferably) [2]: Key
Substance: 2328 (IIYSI; REGION 1..5: note = epitope) [compound 2328]

- Epitope sequence binding to IgE antibody, rank of the sequence (serum of patient P2 (WDEIA), partial sequence): Key
Substance: 2614 (AKPLL; REGION 1..5: note = epitope) [compound 2614]

- Epitope sequence binding to IgE antibody, rank of the sequence (serum of patient G9 (adult, general immediate type allergy to wheat), partial sequence): Key
Substance: 2700 (YKGPTL; REGION 1..6: note = epitope) [compound 2700]

- Epitope sequence binding to IgE antibody, rank of the sequence (serum of patient P27 (WDEIA), partial sequence): Preferably
Substance: 2685 (YKGPTL; REGION 1..6: note = epitope) [compound 2685]

- Epitope sequence binding to IgE antibody, rank of the sequence (serum of patient P33 (WDEIA), partial sequence): Preferably
Substance: 2742 (YKIGGIGTVP; REGION 1..10: note = epitope) [compound 2742]

- Epitope sequence binding to IgE antibody, rank of the sequence (serum of patient G7 (adult, general immediate type allergy to wheat), partial sequence): Key
Substance: 2627 (LLASLSKRV; REGION 1..9: note = epitope) [compound 2627]

- Epitope sequence binding to IgE antibody, rank of the sequence (serum of patient P25 (WDEIA), partial sequence): Key
Substance: 2719 (YKIGG; REGION 1..5: note = epitope) [compound 2719]

- Epitope sequence binding to IgE antibody, rank of the sequence (Key/Preferably/More preferably) [6]: Preferably
Substance: 2424 (AWSGK; REGION 1..5: note = epitope) [compound 2424]

- Epitope sequence binding to IgE antibody, rank of the sequence (serum of patient P26 (WDEIA), partial sequence): Preferably
Substance: 2722 (YKIGG; REGION 1..5: note = epitope) [compound 2722]

- Epitope sequence binding to IgE antibody, rank of the sequence (Key/Preferably/More preferably) (serum of patient P21 (WDEIA), sequence without X): Key
Substance: 2230 (IRNYRV; REGION 1..6: note = epitope) [compound 2230]

- Epitope sequence binding to IgE antibody, rank of the sequence (Key/Preferably/More preferably) [2]: Preferably
Substance: 2292 (KRVIERFEK; REGION 1..9: note = epitope) [compound 2292]
